Key:
[1] = ACTH and β-endorphin secretion, general procedure of Example III (in vitro / in vivo not separated)
From the text: (§1) The urotensin peptide from Example II is examined for effects on the secretion of ACTH and β-endorphin in vitro and also examined in vivo. A low potency (4%) to stimulate the secretion of ACTH and β-endorphinby cultured rat pituitary cells is observed. The peptide also stimulates ACTH and B-END-LI secretion in vivo in several rat preparations. UI activity of the peptide is evident in the isolated rat hind limb assay, Lederis, K. et al. "Effects and Assay of Urotensin I on the Perfused Hind Limb of the Rat", Gen. Comp. Endocrinol., 24:10-16, 1974. In vivo hypotensive activity of extracted peptides is measured in anaesthetized rats, Lederis, K. and Medakovic, M. "Pharmacological Observations on the Hypotensive Actin of Extracts of Teleost Fish Urophyses (Urotensin I) in the Rat", Br. J. Pharmacol. 51:315-324, 1974, and in anaesthetized dogs, MacCannell and Lederis, "Dilatation of the Mesenteric Vascular Bed of the Dog Produced by a Peptide, Urotensin I", J. Pharm. Exp. Ther. 203:38-46, 1977.

[2] = Vasodilatory-hypotensive activity, general procedure of Example III (species not separated); format: in vivo; conditions: for mesenteric blood flow / systemic blood pressure / vasodilatory-hypotensive activity: general procedure of Example III; for vasodilatory-hypotensive activity: mammalian
From the text: as §1

[3] = tested on: cultured rat pituitary cells; experiment: Secretion of ACTH and β-endorphin by cultured rat pituitary cells; format: cell-based; conditions: relative potency, reference not named
From the text: as §1

[4] = ACTH and B-END-LI secretion in vivo in several rat preparations
From the text: as §1

[5] = tested on: Perfused Hind Limb of the Rat; experiment: Isolated rat hind limb assay (UI activity)
From the text: as §1

[6] = In vivo hypotensive activity in anaesthetized rats; conditions: anaesthetized rat
From the text: as §1

mesenteric vascular bed = experiment: In vivo hypotensive activity / mesenteric vasodilatation in anaesthetized dogs; parameters: species or system dog
From the text: as §1
In the pentobarbital-anaesthetized dog, the threshold dose of Maggy UI for mesenteric vasodilatation, when given close arterially into the cephalic mesenteric A, is between 0.001 and 0.01 μg.

teleost fish pituitaries = experiment: Secretion of ACTH by teleost fish pituitaries
[7] = tested on: isolated mesenteric artery strips of the rat; experiment: Isolated mesenteric artery strips of the rat
From the text: The synthetic peptides described above with respect to Example I are generally equipotent with the extracted and purified peptide, as tested in the anaesthetized dog in vivo and when tested in isolated mesenteric artery strips of the rat according to Muramatsu, I., Miura, A., Fujiwara, M. and Lederis, K., Gen. Comp. Endocrinol. 45:446-452, 1981.

[8] = pentobarbital-anaesthetized dog, doses of 0.1-0.5 μg

| Substance | secretion of ACTH and β-END-LI ([1]; general procedure of Example III) | mesenteric blood flow [2] | systemic blood pressure [2] | vasodilatory-hypotensive activity [2] | potency to stimulate the secretion of ACTH and β-endorphin [3] [%] | ACTH and B-END-LI secretion in vivo [4] | UI activity [5] | blood pressure [6] | blood pressure (mesenteric vascular bed; anaesthetized dog) | dilatation of vascular beds other than the mesenteric (mesenteric vascular bed; anaesthetized dog) | activity compared with the extracted and purified peptide (mesenteric vascular bed; anaesthetized dog in vivo) | accompanying change in blood pressure (decrease) (mesenteric vascular bed; [8]) | mesenteric flow (mesenteric vascular bed; [8]) | potency in stimulating the secretion of ACTH compared with amunine (teleost fish pituitaries) | activity compared with the extracted and purified peptide [7] | ACTH and β-endorphin activities ([1]; in vitro and in vivo (summary statement)) | blood pressure ([2]; summary statement) |
| --- | --- | --- | --- | --- | --- | --- | --- | --- | --- | --- | --- | --- | --- | --- | --- | --- | --- |
| Ac-SEEPPMSIDLTFHMLRNMIHRAKMEGEREQALINRNLLDEV-NH2 [IV] | stimulates | very significant increasing | lowering | causes vasodilatory-hypotensive activity | – | – | – | – | – | – | – | – | – | – | – | – | – |
| H-SEEPPMSIDLTFHMLRNMIHRAKMEGER-NH2 [Example V, H-Ser-Glu-Glu-Pro-Pro-Met-Ser-Ile-Asp-Leu-Thr-Phe-His-Met-Leu-Arg-Asn-Met- Ile-His-Arg-Ala-Lys-Met-Glu-Gly-Glu-Arg-NH2] | – | increasing | lowering | significant | – | – | – | – | – | – | – | – | – | – | – | – | – |
| H-SEEPPMSIDLTFHMLRNMIHRAKMEGEREQALINRNLLDEV-NH2 [Maggy UI] | – | – | – | – | 4 | stimulates | evident | more marked fall in blood pressure | modest but sustained depression of the blood pressure | does not dilate other vascular beds | not significantly different | about 10% | significant increase | somewhat more potent than amunine | not significantly different | stimulate ACTH and β-endorphin activities in vitro and in vivo | substantially lower blood pressure for an extended time period |
